Test results published in patent publication US20220324815A1, “2-PHENOXY-PYRIMIDINE DERIVATIVES AS HERBICIDAL COMPOUNDS” (SYNGENTA CROP PROTECTION AG, priority 2019, published 2022).

Columns and labels:
Assay type in all cases: in vivo
Conditions in all cases: 250 g/ha unless otherwise stated, evaluated after 13 days, five-point scale
Setaria faberi (SETFA) [1] = test: Test 1 glasshouse herbicide test, post-emergence application (Table B1)
Outline: (§1)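 Score is % phytotoxicity after 13 days, binned 1 (0–20%) to 5 (81–100%). Compound given at 250 g/ha unless stated, as acetone/water (50:50) spray with 0.5% Tween 20, one day post-sowing (pre-emergence) or after 8 days' growth (post-emergence); glasshouse at 24/16 °C day/night, 14 h light, 65% humidity.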

[2] = test system: Ipomoea hederacea (IPOHE); test: as above
Outline: as §1

[3] = test system: Echinochloa crus-galli (ECHCG); test: as above
Outline: as §1

[4] = test system: Amaranthus retoflexus (AMARE); test: as above
Outline: as §1

Setaria faberi (SETFA) [5] = test: Test 1 glasshouse herbicide test, pre-emergence application (Table B2)
Outline: as §1

[6] = test system: Ipomoea hederacea (IPOHE); test: as above
Outline: as §1

[7] = test system: Echinochloa crus-galli (ECHCG); test: as above
Outline: as §1

[8] = test system: Amaranthus retoflexus (AMARE); test: as above
Outline: as §1

CC(C)CCS(=O)(=O)c1ccccc1Oc1ncc(Cl)cn1 [Compound A75]
% phytotoxicity SETFA, post-emergence application (Setaria faberi (SETFA) [1]): 2 (2=21 to 40%)
% phytotoxicity IPOHE, post-emergence application [2]: 2 (2=21 to 40%)
% phytotoxicity ECHCG, post-emergence application [3]: 3 (3=41 to 60%)
% phytotoxicity AMARE, post-emergence application [4]: 2 (2=21 to 40%)
% phytotoxicity SETFA, pre-emergence application (Setaria faberi (SETFA) [5]): 4 (4=61 to 80%)
% phytotoxicity IPOHE, pre-emergence application [6]: 1 (1=0 to 20%)
% phytotoxicity ECHCG, pre-emergence application [7]: 4 (4=61 to 80%)
% phytotoxicity AMARE, pre-emergence application [8]: 5 (5=81 to 100%)

CC(C)CS(=O)(=O)c1ccccc1Oc1ncc(Cl)cn1 [Compound A76]
% phytotoxicity SETFA, post-emergence application (Setaria faberi (SETFA) [1]): 1 (1=0 to 20%)
% phytotoxicity IPOHE, post-emergence application [2]: 2 (2=21 to 40%)
% phytotoxicity ECHCG, post-emergence application [3]: 2 (2=21 to 40%)
% phytotoxicity AMARE, post-emergence application [4]: 1 (1=0 to 20%)
% phytotoxicity SETFA, pre-emergence application (Setaria faberi (SETFA) [5]): 4 (4=61 to 80%)
% phytotoxicity IPOHE, pre-emergence application [6]: 2 (2=21 to 40%)
% phytotoxicity ECHCG, pre-emergence application [7]: 3 (3=41 to 60%)
% phytotoxicity AMARE, pre-emergence application [8]: 5 (5=81 to 100%)

CCCCCCS(=O)(=O)c1ccccc1Oc1ncc(Cl)cn1 [Compound A77]
% phytotoxicity SETFA, post-emergence application (Setaria faberi (SETFA) [1]): 1 (1=0 to 20%)
% phytotoxicity IPOHE, post-emergence application [2]: 1 (1=0 to 20%)
% phytotoxicity ECHCG, post-emergence application [3]: 1 (1=0 to 20%)
% phytotoxicity AMARE, post-emergence application [4]: 2 (2=21 to 40%)
% phytotoxicity SETFA, pre-emergence application (Setaria faberi (SETFA) [5]): 1 (1=0 to 20%)
% phytotoxicity IPOHE, pre-emergence application [6]: 1 (1=0 to 20%)
% phytotoxicity ECHCG, pre-emergence application [7]: 3 (3=41 to 60%)
% phytotoxicity AMARE, pre-emergence application [8]: 4 (4=61 to 80%)

O=S(=O)(CCCF)c1ccccc1Oc1ncc(Cl)cn1 [Compound A82]
% phytotoxicity SETFA, post-emergence application (Setaria faberi (SETFA) [1]): 1 (1=0 to 20%)
% phytotoxicity IPOHE, post-emergence application [2]: 3 (3=41 to 60%)
% phytotoxicity ECHCG, post-emergence application [3]: 1 (1=0 to 20%)
% phytotoxicity AMARE, post-emergence application [4]: 3 (3=41 to 60%)
% phytotoxicity SETFA, pre-emergence application (Setaria faberi (SETFA) [5]): 3 (3=41 to 60%)
% phytotoxicity IPOHE, pre-emergence application [6]: 1 (1=0 to 20%)
% phytotoxicity ECHCG, pre-emergence application [7]: 3 (3=41 to 60%)
% phytotoxicity AMARE, pre-emergence application [8]: 5 (5=81 to 100%)

CCC(CC)CS(=O)(=O)c1ccccc1Oc1ncc(Cl)cn1 [Compound A87]
% phytotoxicity SETFA, post-emergence application (Setaria faberi (SETFA) [1]): 1 (1=0 to 20%)
% phytotoxicity IPOHE, post-emergence application [2]: 1 (1=0 to 20%)
% phytotoxicity ECHCG, post-emergence application [3]: 1 (1=0 to 20%)
% phytotoxicity AMARE, post-emergence application [4]: 1 (1=0 to 20%)
% phytotoxicity SETFA, pre-emergence application (Setaria faberi (SETFA) [5]): 1 (1=0 to 20%)
% phytotoxicity IPOHE, pre-emergence application [6]: 1 (1=0 to 20%)
% phytotoxicity ECHCG, pre-emergence application [7]: 1 (1=0 to 20%)
% phytotoxicity AMARE, pre-emergence application [8]: 1 (1=0 to 20%)

CCC(C)S(=O)(=O)c1ccccc1Oc1ncc(Cl)cn1 (stereo not drawn) [Compound A88]
% phytotoxicity SETFA, post-emergence application (Setaria faberi (SETFA) [1]): 1 (1=0 to 20%)
% phytotoxicity IPOHE, post-emergence application [2]: 1 (1=0 to 20%)
% phytotoxicity ECHCG, post-emergence application [3]: 1 (1=0 to 20%)
% phytotoxicity AMARE, post-emergence application [4]: 2 (2=21 to 40%)
% phytotoxicity SETFA, pre-emergence application (Setaria faberi (SETFA) [5]): 5 (5=81 to 100%)
% phytotoxicity IPOHE, pre-emergence application [6]: 2 (2=21 to 40%)
% phytotoxicity ECHCG, pre-emergence application [7]: 1 (1=0 to 20%)
% phytotoxicity AMARE, pre-emergence application [8]: 5 (5=81 to 100%)

O=S(=O)(Cc1cccc(Cl)c1)c1ccccc1Oc1ncc(Cl)cn1 [Compound A89]
% phytotoxicity SETFA, post-emergence application (Setaria faberi (SETFA) [1]): 1 (1=0 to 20%)
% phytotoxicity IPOHE, post-emergence application [2]: 1 (1=0 to 20%)
% phytotoxicity ECHCG, post-emergence application [3]: 1 (1=0 to 20%)
% phytotoxicity AMARE, post-emergence application [4]: 3 (3=41 to 60%)
% phytotoxicity SETFA, pre-emergence application (Setaria faberi (SETFA) [5]): 1 (1=0 to 20%)
% phytotoxicity IPOHE, pre-emergence application [6]: 1 (1=0 to 20%)
% phytotoxicity ECHCG, pre-emergence application [7]: 1 (1=0 to 20%)
% phytotoxicity AMARE, pre-emergence application [8]: 1 (1=0 to 20%)

N#Cc1cccc(Oc2ncc(Cl)cn2)c1S(=O)(=O)CCCCC(F)(F)F [Compound A91]
% phytotoxicity SETFA, post-emergence application (Setaria faberi (SETFA) [1]): 4 (4=61 to 80%)
% phytotoxicity IPOHE, post-emergence application [2]: 4 (4=61 to 80%)
% phytotoxicity ECHCG, post-emergence application [3]: 5 (5=81 to 100%)
% phytotoxicity AMARE, post-emergence application [4]: 5 (5=81 to 100%)
% phytotoxicity SETFA, pre-emergence application (Setaria faberi (SETFA) [5]): 5 (5=81 to 100%)
% phytotoxicity IPOHE, pre-emergence application [6]: 5 (5=81 to 100%)
% phytotoxicity ECHCG, pre-emergence application [7]: 5 (5=81 to 100%)
% phytotoxicity AMARE, pre-emergence application [8]: 5 (5=81 to 100%)

N#Cc1cccc(Oc2ncc(Cl)cn2)c1S(=O)(=O)CCCCCC(F)(F)F [Compound A92]
% phytotoxicity SETFA, post-emergence application (Setaria faberi (SETFA) [1]): 2 (2=21 to 40%)
% phytotoxicity IPOHE, post-emergence application [2]: 2 (2=21 to 40%)
% phytotoxicity ECHCG, post-emergence application [3]: 3 (3=41 to 60%)
% phytotoxicity AMARE, post-emergence application [4]: 5 (5=81 to 100%)
% phytotoxicity SETFA, pre-emergence application (Setaria faberi (SETFA) [5]): 4 (4=61 to 80%)
% phytotoxicity IPOHE, pre-emergence application [6]: 1 (1=0 to 20%)
% phytotoxicity ECHCG, pre-emergence application [7]: 4 (4=61 to 80%)
% phytotoxicity AMARE, pre-emergence application [8]: 5 (5=81 to 100%)
